Measured values from patent publication US10077261B2, “Imidazolin-5-one derivative useful as FASN inhibitors for the treatment of cancer” (Janssen Pharmaceutica NV, priority 2012, dated 2018).

Target: T1, hFASN enzyme (full length) (Homo sapiens, UniProt P49327)
T1 construct: 10 μL hFASN enzyme (full length, 300 ng, purified in house); made in house
Assay: Fatty Acid Synthase (FASN) inhibition scintillation proximity assay
Assay type: biochemical
Settings: for inhibition at 10 µM: read-out: Human FASN % inhibition @ 10 μM, 10 μM test compound; for IC50: read-out: Human FASN pIC50 (converted)
How it was run: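 Full-length in-house purified enzyme (300 ng) was tested in 100 mM KH2PO4 pH 7.5, 1 mM DTT with ³H-acetyl-CoA and malonyl-CoA as substrates; compounds ranged 0.01–30 μM. Reactions were stopped with streptavidin imaging beads, read by LEADseeker at 610 nm, and fitted to a 4-parameter logistic curve.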

T1 sequence (P49327 whole entry): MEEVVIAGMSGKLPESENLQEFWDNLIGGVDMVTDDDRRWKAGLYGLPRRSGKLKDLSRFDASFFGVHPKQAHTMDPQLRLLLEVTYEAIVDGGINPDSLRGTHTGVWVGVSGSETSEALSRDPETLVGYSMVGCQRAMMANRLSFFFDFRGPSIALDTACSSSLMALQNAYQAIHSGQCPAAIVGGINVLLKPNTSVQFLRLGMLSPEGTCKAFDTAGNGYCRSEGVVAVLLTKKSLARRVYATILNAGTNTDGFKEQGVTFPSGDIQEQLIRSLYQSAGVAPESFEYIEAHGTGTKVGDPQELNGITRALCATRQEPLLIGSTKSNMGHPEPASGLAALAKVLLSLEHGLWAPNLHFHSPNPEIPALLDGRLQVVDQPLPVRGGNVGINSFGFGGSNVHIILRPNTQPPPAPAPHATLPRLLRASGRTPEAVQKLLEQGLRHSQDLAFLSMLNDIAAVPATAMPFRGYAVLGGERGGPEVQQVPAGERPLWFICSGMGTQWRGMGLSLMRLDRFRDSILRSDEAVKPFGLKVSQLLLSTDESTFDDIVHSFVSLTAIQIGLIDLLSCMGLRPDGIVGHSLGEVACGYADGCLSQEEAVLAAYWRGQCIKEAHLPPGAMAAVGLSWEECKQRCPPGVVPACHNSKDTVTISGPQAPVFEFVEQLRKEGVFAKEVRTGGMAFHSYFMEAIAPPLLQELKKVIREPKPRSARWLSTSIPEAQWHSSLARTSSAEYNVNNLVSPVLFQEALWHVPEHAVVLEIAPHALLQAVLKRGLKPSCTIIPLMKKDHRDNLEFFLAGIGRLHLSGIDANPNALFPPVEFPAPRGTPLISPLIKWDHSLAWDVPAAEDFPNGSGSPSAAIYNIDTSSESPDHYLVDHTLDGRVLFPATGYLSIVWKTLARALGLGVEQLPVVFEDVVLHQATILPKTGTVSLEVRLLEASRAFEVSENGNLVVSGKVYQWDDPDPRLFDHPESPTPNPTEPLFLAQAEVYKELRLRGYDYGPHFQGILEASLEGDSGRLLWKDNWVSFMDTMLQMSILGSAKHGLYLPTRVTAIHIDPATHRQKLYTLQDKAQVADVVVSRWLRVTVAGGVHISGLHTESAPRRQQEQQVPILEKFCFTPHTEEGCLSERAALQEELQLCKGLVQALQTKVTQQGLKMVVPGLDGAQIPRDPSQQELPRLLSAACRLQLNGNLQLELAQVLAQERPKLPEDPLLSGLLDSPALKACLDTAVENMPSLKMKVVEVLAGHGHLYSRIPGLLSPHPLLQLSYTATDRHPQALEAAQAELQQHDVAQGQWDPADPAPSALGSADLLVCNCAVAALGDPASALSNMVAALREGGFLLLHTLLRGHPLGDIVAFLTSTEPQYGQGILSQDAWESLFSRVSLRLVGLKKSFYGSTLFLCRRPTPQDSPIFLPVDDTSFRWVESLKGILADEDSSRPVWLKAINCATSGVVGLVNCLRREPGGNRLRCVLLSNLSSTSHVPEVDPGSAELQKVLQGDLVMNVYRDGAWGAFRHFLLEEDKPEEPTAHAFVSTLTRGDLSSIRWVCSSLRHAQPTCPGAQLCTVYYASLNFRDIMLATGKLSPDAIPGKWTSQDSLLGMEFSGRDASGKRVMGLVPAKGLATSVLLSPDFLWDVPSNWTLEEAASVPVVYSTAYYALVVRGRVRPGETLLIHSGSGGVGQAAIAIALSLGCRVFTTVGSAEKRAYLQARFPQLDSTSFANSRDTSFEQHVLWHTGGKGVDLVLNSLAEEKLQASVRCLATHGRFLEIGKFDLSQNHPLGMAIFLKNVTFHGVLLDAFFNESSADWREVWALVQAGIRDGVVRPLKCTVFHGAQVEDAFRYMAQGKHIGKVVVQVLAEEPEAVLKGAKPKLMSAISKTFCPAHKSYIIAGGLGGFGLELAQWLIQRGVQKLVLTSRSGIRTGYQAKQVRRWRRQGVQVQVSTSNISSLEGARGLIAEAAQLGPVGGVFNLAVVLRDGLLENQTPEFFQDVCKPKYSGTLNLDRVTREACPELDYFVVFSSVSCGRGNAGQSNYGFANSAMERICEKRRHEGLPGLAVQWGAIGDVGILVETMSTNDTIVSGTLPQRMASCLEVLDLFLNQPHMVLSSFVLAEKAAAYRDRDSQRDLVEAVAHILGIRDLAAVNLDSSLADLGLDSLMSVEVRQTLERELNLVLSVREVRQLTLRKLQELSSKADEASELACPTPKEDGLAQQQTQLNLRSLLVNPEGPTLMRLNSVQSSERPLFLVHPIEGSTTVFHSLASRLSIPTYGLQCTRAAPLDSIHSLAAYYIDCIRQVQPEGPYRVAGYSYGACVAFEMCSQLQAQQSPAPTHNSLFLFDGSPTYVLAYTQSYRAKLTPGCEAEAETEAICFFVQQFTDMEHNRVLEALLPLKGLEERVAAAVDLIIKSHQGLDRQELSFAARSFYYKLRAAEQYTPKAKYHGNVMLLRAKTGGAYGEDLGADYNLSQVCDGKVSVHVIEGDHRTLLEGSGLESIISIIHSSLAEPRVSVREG

inhibition at 10 µM [%] | IC50 [µM] | SMILES
-29 | > 10 | Cn1ncc2cc(-c3ccc(C4=NC5(CCOC5)C(=O)N4C[C@@H]4CCN(C(=O)c5nccs5)C4)cc3)ccc21 (stereo partly drawn) [compound 892, 2-(4-(1-methyl-1H-indazol-5-yl)phenyl)-3-(((R)-1-(thiazole-2-carbonyl)pyrrolidin-3-yl)methyl)-7-oxa-1,3-diazxaspiro[4.4]non-1-en-4-one]
-12 | > 10 | Cn1cc(-c2ccc(-c3ccc(C4=NC5(CCOCC5)C(=O)N4CC4CN(C(=O)C(F)(F)F)C4)cc3)cc2)cn1 [compound 893, 2-(4′-(1-methyl-1H-pyrazol-4-yl)-[1,1′-biphenyl]-4-yl)-3-((1-(2,2,2-trifluoroacetyl)azetidin-3-yl)methyl)-8-oxa-1,3-diazaspiro[4.5]dec-1-en-4-one]
20 | > 10 | COC(=O)N1CC[C@@H](CN2C(=O)C3(CCOC3)N=C2c2ccc(-c3ccc(-c4cnn(C)c4)cc3)cc2)C1 (stereo partly drawn) [compound 894, (3S)-methyl 3-((2-(4′-(1-methyl-1H-pyrazol-4-yl)-[1,1′-biphenyl]-4-yl)-4-oxo-7-oxa-1,3-diazaspiro[4.4]non-1-en-3-yl)methyl)pyrrolidin-1-carboxylate]
6 | > 10 | O=C(N1CC(CN2C(=O)C3(CCOC3)N=C2c2ccc(-c3ccc4cccnc4c3)cc2)C1)C(F)(F)F (centres unmarked) [compound 895, 2-(4-(quinolin-7-yl)phenyl)-3-((1-(2,2,2-trifluoroacetyl)azetidin-3-yl)methyl)-7-oxa-1,3-diazaspiro[4.4]non-1-en-4-one]
2 | > 10 | Cn1cc(-c2ccc(-c3ccc(C4=NC5(CCOC5)C(=O)N4CC4CN(C(=O)c5nccs5)C4)cc3)cc2)cn1 (centres unmarked) [compound 901, 2-(4′-(1-methyl-1H-pyrazol-4-yl)-[1,1′-biphenyl]-4-yl)-3-((1-(thiazol-2-carbonyl)azetidin-3-yl)methyl)-7-oxa-1,3-diazaspiro[4.4]non-1-en-4-one]
6 | > 10 | Cn1ncc2cc(-c3ccc(C4=NC5(CCOCC5)C(=O)N4CC4CN(S(C)(=O)=O)C4)cc3)ccc21 [compound 902, 2-(4-(1-methyl-1H-indazol-5-yl)phenyl)-3-((1-(methylsulfonyl)azetidin-3-yl)methyl)-8-oxa-1,3-diazaspiro[4.5]dec-1-en-4-one]
15 | > 10 | COC(=O)N1CC(CN2C(=O)C3(CCOC3)N=C2c2ccc(-c3ccc4cccnc4c3)cc2)C1 (centres unmarked) [compound 903, methyl 3-((4-oxo-2-(4-(quinolin-7-yl)phenyl)-7-oxa-1,3-diazaspiro[4.4]non-1-en-3-yl)methyl)azetidine-1-carboxylate]
-24 | > 10 | COC(=O)N1CC(CN2C(=O)C3(CCOC3)N=C2c2ccc(-c3ccc4occc4c3)cc2)C1 (centres unmarked) [compound 904, methyl 3-((2-(4-(benzofuran-5-yl)phenyl)-4-oxo-7-oxa-1,3-diazaspiro[4.4]non-1-en-3-yl)methyl)azetidin-1-carboxylate]
-7 | > 10 | COC(=O)N1CC(CN2C(=O)C3(CCOC3)N=C2c2ccc(-c3ccc4c(cnn4C)c3)cc2)C1 (centres unmarked) [compound 905, methyl 3-((2-(4-(1-methyl-1H-indazol-5-yl)phenyl)-4-oxo-7-oxa-1,3-diazaspiro[4.4]non-1-en-3-yl)methyl)azetidine-1-carboxylate]
14 | > 10 | COC(=O)N1CC[C@@H](CN2C(=O)C3(CN(C(=O)OC)C3)N=C2c2ccc(-c3ccc(-c4cnn(C)c4)cc3)cc2)C1 [compound 906, (S)-methyl 7-((1-(methoxycarbonyl)pyrrolidin-3-yl)methyl)-6-(4′-(1-methyl-1H-pyrazol-4-yl)-[1,1′-biphenyl]-4-yl)-8-oxo-2,5,7-triazaspiro[3.4]oct-5-ene-2-carboxylate]
21 | > 10 | COC(=O)N1CC2(C1)N=C(c1ccc(-c3ccc4c(cnn4C)c3)cc1)N(C[C@@H]1CCN(C(=O)C(F)(F)F)C1)C2=O [compound 907, (R)-methyl 6-(4-(1-methyl-1H-indazol-5-yl)phenyl)-8-oxo-7-((1-(2,2,2-trifluoroacetyl)pyrrolidin-3-yl)methyl)-2,5,7-triazaspiro[3.4]oct-5-ene-2-carboxylate]
2 | > 10 | Cn1ncc2cc(-c3ccc(C4=NC5(CCOCC5)C(=O)N4CC4CN(C(=O)c5nccs5)C4)cc3)ccc21 [compound 908, 2-(4-(1-methyl-1H-indazol-5-yl)phenyl)-3-((1-(thiazole-2-carbonyl)azetidin-3-yl)methyl)-8-oxa-1,3-diazaspiro[4.5]dec-1-en-4-one]
6 | > 10 | Cn1ncc2cc(-c3ccc(C4=NC5(CCOC5)C(=O)N4CC4CN(C(=O)c5nccs5)C4)cc3)ccc21 (centres unmarked) [compound 909, 2-(4-(1-methyl-1H-indazol-5-yl)phenyl)-3-((1-(thiazole-2-carbonyl)azetidin-3-yl)methyl)-7-oxa-1,3-diazaspiro[4.4]non-1-en-4-one]
12 | > 10 | O=C(N1CC(CN2C(=O)C3(CCOCC3)N=C2c2ccc(-c3ccc4cccnc4c3)cc2)C1)C(F)(F)F [compound 910, 2-(4-(quinolin-7-yl)phenyl)-3-((1-(2,2,2-trifluoroacetyl)azetidin-3-yl)methyl)-8-oxa-1,3-diazaspiro[4.5]dec-1-en-4-one]
7 | > 10 | Cn1cc(-c2ccc(-c3ccc(C4=NC5(CCOCC5)C(=O)N4CC4CN(C(=O)c5nccs5)C4)cc3)cc2)cn1 [compound 911, 2-(4′-(1-methyl-1H-pyrazol-4-yl)-[1,1′-biphenyl]-4-yl)-3-((1-(thiazole-2-carbonyl)azetidin-3-yl)methyl)-8-oxa-1,3-diazaspiro[4.5]dec-1-en-4-one]
1 | > 10 | CS(=O)(=O)N1CC(CN2C(=O)C3(CCOCC3)N=C2c2ccc(-c3ccc4cccnc4c3)cc2)C1 [compound 912, 3-((1-(methylsulfonyl)azetidin-3-yl)methyl)-2-(4-(quinolin-7-yl)phenyl)-8-oxa-1,3-diazaspiro[4.5]dec-1-en-4-one]
0.4 | > 10 | CS(=O)(=O)N1CC[C@@H](CN2C(=O)C3(CCOCC3)N=C2c2ccc(-c3ccc4occc4c3)cc2)C1 [compound 913, (S)-2-(4-(benzofuran-5-yl)phenyl)-3-((1-(methylsulfonyl)pyrrolidin-3-yl)methyl)-8-oxa-1,3-diazaspiro[4.5]dec-1-en-4-one]
1 | > 10 | CS(=O)(=O)N1CC[C@@H](CN2C(=O)C3(CCOC3)N=C2c2ccc(-c3ccc4occc4c3)cc2)C1 (stereo partly drawn) [compound 914, 2-(4-(benzofuran-5-yl)phenyl)-3-(((S)-1-(methylsulfonyl)pyrrolidin-3-yl)methyl)-7-oxa-1,3-diazaspiro[4.4]non-1-en-4-one]
11 | > 10 | COC(=O)N1CC[C@@H](CN2C(=O)C3(CCOC3)N=C2c2ccc(-c3ccc4c(cnn4C)c3)cc2)C1 (stereo partly drawn) [compound 915, (3S)-methyl 3-((2-(4-(1-methyl-1H-indazol-5-yl)phenyl)-4-oxo-7-oxa-1,3-diazaspiro[4.4]non-1-en-3-yl)methyl)pyrrolidin-1-carboxylate]
20 | > 10 | COC(=O)N1CC[C@@H](CN2C(=O)C3(CN(C(=O)OC)C3)N=C2c2ccc(-c3ccc4c(cnn4C)c3)cc2)C1 [compound 916, (S)-methyl 7-((1-(methoxycarbonyl)pyrrolidin-3-yl)methyl)-6-(4-(1-methyl-1H-indazol-5-yl)phenyl)-8-oxo-5,7-triazaspiro[3.4]oct-5-ene-2-carboxylate]
2 | > 10 | COC(=O)N1CC2(C1)N=C(c1ccc(-c3ccc4c(cnn4C)c3)cc1)N(C[C@@H]1CCN(S(C)(=O)=O)C1)C2=O [compound 917, (S)-methyl 6-(4-(1-methyl-1H-indazol-5-yl)phenyl)-7-((1-(methylsulfonyl)pyrrolidin-3-yl)methyl)-8-oxo-2,5,7-triazaspiro[3.4]oct-5-ene-2-carboxylate]
12 | > 10 | COC(=O)N1CC2(C1)N=C(c1ccc(-c3ccc(-c4cnn(C)c4)cc3)cc1)N(C[C@@H]1CCN(C(=O)C(F)(F)F)C1)C2=O [compound 919, (R)-methyl 6-(4′-(1-methyl-1H-pyrazol-4-yl)-[1,1′-biphenyl]-4-yl)-8-oxo-7-((1-(2,2,2-trifluoroacetyl)pyrrolidin-3-yl)methyl)-2,5,7-triazaspiro[3.4]oct-5-ene-2-carboxylate]
35 | > 10 | O=C(c1nccs1)N1CC[C@@H](CN2C(=O)C3(CCOC3)N=C2c2ccc(-c3ccc4cccnc4c3)cc2)C1 (stereo partly drawn) [compound 920, 2-(4-(quinolin-7-yl)phenyl)-3-(((R)-1-(thiazole-2-carbonyl)pyrrolidin-3-yl)methyl)-7-oxa-1,3-diazaspiro[4.4]non-1-en-4-one]
-7 | > 10 | Cn1cc(-c2ccc(-c3ccc(C4=NC5(CCOCC5)C(=O)N4CC4CN(S(C)(=O)=O)C4)cc3)cc2)cn1 [compound 921, 2-(4′-(1-methyl-1H-pyrazol-4-yl)-[1,1′-biphenyl]-4-yl)-3-((1-(methylsulfonyl)azetidin-3-yl)methyl)-8-oxa-1,3-diazaspiro[4.5]dec-1-en-4-one]
41 | > 10 | COC(=O)N1CC2(C1)N=C(c1ccc(-c3ccc(-c4cnn(C)c4)cc3)cc1)N(C[C@@H]1CCN(C(=O)N3CCCC3)C1)C2=O [compound 924, (S)-methyl 6-(4′-(1-methyl-1H-pyrazol-4-yl)-[1,1′-biphenyl]-4-yl)-8-oxo-7-((1-(pyrrolidine-1-carbonyl)pyrrolidin-3-yl)metrhyl)-2,5,7-triazaspiro[3.4]oct-5-ene-2-carboxylate]
